# Source: US20080214661A1, “Process To Obtain Dibenzylbutyrolactonic, Tetrahydrofuranic Lignans And Their Synthetic And Semi-Synthetic Derivatives, Their Analgesic And Anti-Inflammatory Activities, Topical And/Or Systemic Formulations Containing Said Lignans And Their Respective Therapeutic Method” (FUNDACADO DE AMPARO A PESQUISA DO ESTADO DE SAO PAULO, priority 2005, published 2008)
# What was measured:
# Format in all cases: in vivo
# digestive system = assay: preliminary tests of side effects (gastric, biochemical, hematological)
# [1] = tested on: rat foot edema induced by carrageenin; assay: rat foot edema induced by carrageenin; settings: oral administration; for inhibition as anti-inflammatory agent (rat foot edema): doses of 10, 20, 30 and 40 mg/kg, carrageenin 100 μg/foot, edema volume at third hour, dose for the value not stated
# Method: Each bar represents the average ±SE (n=6) of the increase in edema volume (third hour) after the injection of carrageenin. Data were analyzed by one-way ANOVA and by Dunnett's multiple comparison variation test and the statistical significance was made for the level of p<0.05 (*) and p<0.01 (**).
# [2] = tested on: writhing induced by 0.6% acetic acid solution in mice; assay: writhing test induced by intraperitoneal injection of acetic acid; settings: oral administration, doses of 10, 20, 30 and 40 mg/kg; 0.6% acetic acid i.p. in mice; number of writhing in 20 minutes; dose for the value not stated
# Method: Each bar represents the average ±SE (n=6) of the number of writhing in 20 minutes for different doses. Data were analyzed by one-way ANOVA and by Dunnett's multiple comparison variation test and the statistical significance was made for the level of p<0.05 (*) and p<0,01 (**)
Compound,gastric effects (digestive system),other biochemical and hematological disturbances (digestive system),inhibition as anti-inflammatory agent (rat foot edema) [1] [%],inhibition as analgesic agent (writhing test) [2] [%],"efficacy as anti-inflammatory agent ([1]; 10-40 mg/kg, carrageenin-induced rat foot edema)"
"O=C1OC[C@@H](Cc2ccc3c(c2)OCO3)[C@@H]1Cc1ccc2c(c1)OCO2 [compound 6, (-)-hinokinin]",not evident,non-occurrence,71,95,–
"c1ccc(COC2OC[C@@H](Cc3ccc4c(c3)OCO4)[C@@H]2Cc2ccc3c(c2)OCO3)cc1 (stereo partly drawn) [compound 5, (-)—O-benzyl cubebin]",–,–,–,89,not efficient as an anti-inflammatory agent
"(-)-6,6′-dinitroinokinin [compound 7]",–,–,62,75,–
"Nc1cc2c(cc1CC1COC(=O)C1Cc1cc3c(cc1N)OCO3)OCO2 (single isomer, unassigned; (-)) [compound 8, (-)-6,6′-diaminohinokinin]",not evident,non-occurrence,82,92,–
"COc1ccc2c(c1)c(CC(=O)O)c(C)n2C(=O)c1ccc(Cl)cc1 [indomethacin, reference compound]",gastric effects as observed,–,–,–,–
